The results in this text go back to patent US20120029187A1, “HALOALKYLSULFONANILIDE DERIVATIVE” (Nissan Chemical Industries, Ltd., priority 2009, published 2012).

Structures are written as SMILES.

What all share (format): in vivo
Data set [1] relates to transplanted rice. Kind of data set: Test Example 1: preemergence treatment under submerged conditions, effect on crop. The following applies: dose 2.52 g/a. The procedure, abridged:
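Submerged conditions, 4 cm water over alluvial soil. Weeds sown and 2.5-leaf rice transplanted; compound applied preemergence to water surface, doses in g per are. Greenhouse, 25 to 30° C., three weeks, then 0–5 mortality rating.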

Data set [2] concerns ducksalad. Kind of data set: Test Example 2: herbicidal effects during the vegetation period under submerged conditions. The following applies: treatment during the vegetation period under submerged conditions; dose 2.52 g/a. In outline:
(§1)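 Barnyardgrass, bulrush and ducksalad were co-sown in alluvial soil flooded to 4 cm and grown in a greenhouse at 25 to 30° C. At the 1- or 2-leaf stage, water-diluted emulsifiable concentrates went onto the water surface at set doses (g/a). Herbicidal effect was scored three weeks later on a graded scale.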

For data set [3], the system named is barnyardgrass. The description is as above. The following applies: treatment during the vegetation period under submerged conditions; dose 2.52 g/a. In outline:
as §1

Data set [4] relates to bulrush. The data set is described as above. The following applies: treatment during the vegetation period under submerged conditions; dose 2.52 g/a. The procedure, abridged: as §1
Data set [5] deals with barnyardgrass. Kind of data set: Comparative Example 1: herbicidal effects in preemergence treatment on barnyardgrass under submerged conditions. The following applies: applied to water surface on the day of seeding, three weeks after application. The text has this: Comparative Example 1 Test on the Herbicidal Effects in Preemergence Treatment on Barnyardgrass Under Submerged Conditions Alluvial soil was put in 1/30000-are styrol cups and admixed with water so that it was submerged at a depth of 4 cm. In each cup, seeds of barnyardgrass were sown, and on the same day as the seeding, emulsifiable concentrates containing compounds of the present invention formulated in accordance with Formulation Example 2 were applied to the water surfaces at predetermined doses after diluted with water. The cups were placed in a greenhouse at 25 to 30° C. to grow the plants. Three weeks after the application, the herbicidal effects against barnyardgrass were determined on the following evaluation scale. The symbol A in the table means barnyardgrass.

As for `CC(C)COC(=O)N(c1ccccc1CN1COCCC1=O)S(=O)(=O)C(F)(F)F` [II-3], the “a: transplanted rice, effect on crop (evaluation scale 0-5)” value in data set [1] was 0 (mortality of less than 5% (almost ineffective)). In addition, the “C: ducksalad, herbicidal effect (evaluation scale 0-5)” value in data set [2] was 4 (mortality of at least 70% and less than 90%). Also, in data set [3], the “A: barnyardgrass, herbicidal effect (evaluation scale 0-5)” value is reported as 5 (mortality of 90% or above (nearly complete death)). For the same molecule, in data set [4], the “B: bulrush, herbicidal effect (evaluation scale 0-5)” value was 5 (mortality of 90% or above (nearly complete death)). Besides, the “herbicidal effect, A (barnyardgrass)” value in data set [5] (dose 0.16 g/a), in data set [5] (dose 0.64 g/a) and in data set [5] (dose 2.52 g/a) was 5 (mortality of 90% or above (nearly complete death)) throughout.
